Reference: ChEMBL document CHEMBL3797052 (Eur J Med Chem, 2016)

Tested on: not listed separately
Assay: Antiproliferative activity against human SF539 cells assessed as growth inhibition after 48 hrs by sulforhodamine B assay
Type: functional
Settings: SF-539, 48 h
In the case of `CNC(=O)c1cc(Oc2ccc(NC(=O)Nc3ccc(Cl)c(C(F)(F)F)c3)cc2)ccn1` [SORAFENIB], the TGI is reported as 10 µM.

Tested on: not listed separately
Assay: Antiproliferative activity against human RPMI8226 cells assessed as growth inhibition after 48 hrs by sulforhodamine B assay
Type: functional
Settings: RPMI-8226, 48 h
`CNC(=O)c1cc(Oc2ccc(NC(=O)Nc3ccc(Cl)c(C(F)(F)F)c3)cc2)ccn1` [SORAFENIB] showed a TGI of 6.31 µM.

Tested on: not listed separately
Assay: Antiproliferative activity against human PC3 cells assessed as growth inhibition after 48 hrs by sulforhodamine B assay
Type: functional
Settings: PC-3, 48 h
`CNC(=O)c1cc(Oc2ccc(NC(=O)Nc3ccc(Cl)c(C(F)(F)F)c3)cc2)ccn1` [SORAFENIB] gave a GI50 of 2 µM and a TGI of 7.94 µM.

Tested on: not listed separately
Assay: Antiproliferative activity against human HOP92 cells assessed as growth inhibition after 48 hrs by sulforhodamine B assay
Type: functional
Settings: HOP-92, 48 h
Compound `CNC(=O)c1cc(Oc2ccc(NC(=O)Nc3ccc(Cl)c(C(F)(F)F)c3)cc2)ccn1` [SORAFENIB] has a TGI of 5.01 µM.

Tested on: not listed separately
Assay: Antiproliferative activity against human NCI-ADR-RES cells assessed as growth inhibition after 48 hrs by sulforhodamine B assay
Type: functional
Settings: not given
`CNC(=O)c1cc(Oc2ccc(NC(=O)Nc3ccc(Cl)c(C(F)(F)F)c3)cc2)ccn1` [SORAFENIB] gave a GI50 of 2.51 µM and a TGI of 7.94 µM.

Tested on: A549
Assay: Antiproliferative activity against human A549/ATCC cells assessed as growth inhibition after 48 hrs by sulforhodamine B assay
Type: functional
Settings: A549, 48 h
`CNC(=O)c1cc(Oc2ccc(NC(=O)Nc3ccc(Cl)c(C(F)(F)F)c3)cc2)ccn1` [SORAFENIB] showed a GI50 of 3.16 µM and a TGI of 12.6 µM.

Same assay, conditions: A549, 48 h, read-out: LC50 (the source's name)
With `CNC(=O)c1cc(Oc2ccc(NC(=O)Nc3ccc(Cl)c(C(F)(F)F)c3)cc2)ccn1` [SORAFENIB] the CC50 was 63.1 µM.
